From patent US20200087340A1, “LIF/LIFR ANTAGONIST IN ONCOLOGY AND NONMALIGNANT DISEASES” (Evestra, Inc., priority 2018, published 2020)
Entries after “also recorded” stand apart in the source; their conditions may differ.

How the values were obtained:
[1] = system: breast and ovarian cancer cells; experiment: Combination with HDAC inhibitor, colony formation; type: cell-based
Description: Therapy resistance is a major hurdle in cancer chemo/targeted therapy. The role of LIF/LIFR signaling in inducing stemness and hypoxia is well established in different cancers. […] FIG. 16A depicts colony formation of cancer cells under various conditions. […] FIG. 16B depicts the effect of EC359 alone and in combination with SAHA on STAT 3 phosphorylation. FIG. 16C depicts the effect of EC359 alone and in combination with SAHA on induced apoptosis. FIGS. 17A and 17B depicts the effect of EC359 alone and in combination with SAHA on the growth of TNBC patient derived tumors. […] The combination of EC359 and SAHA provided a greater reduction than either […] alone.

PK study in Mouse = type: in vivo
[2] = system: triple negative breast cancer (TNBC) stem cells; experiment: TNBC stem cell inhibition; type: cell-based
Plasma protein binding [3] = type: in vitro ADME; conditions: dog
Hepatocyte stability [4] = type: in vitro ADME; conditions: Mouse
Microsomal stability [5] = type: in vitro ADME; conditions: Mouse
Hepatocyte stability [6] = type: in vitro ADME; conditions: Rat
Plasma stability [7] = type: in vitro ADME; conditions: Dog
Caco2 = experiment: Caco2-permeability & efflux transporter substrate activity; type: in vitro ADME
Plasma stability [8] = type: in vitro ADME; conditions: Rat
[9] = system: various cancer cells lines; experiment: Cytotoxicity assays in various cancer cell lines; type: cell-based
[10] = system: cancer-associated fibroblasts (CAFs), alpha-SMA; experiment: Cytoskeletal disruption / cancer-associated fibroblasts; type: cell-based
TNBC xenograft = TNBC xenograft (EC359); type: in vivo; conditions: 1 and 5 mg/kg
Description: (§1) . Blockade of LIF-LIFR interaction reduced the STAT3 phosphorylation, mTOR and further downstream signaling cascades. […]. Our findings establish EC359 as a novel LIF/LIFR targeting drug with therapeutic perspectives for patients with advanced primary tumors. LIF/LIFR targeting may result in the blockade of JAK-STAT signaling pathway as well as cancer fibroblast associated pro invasive tumor microenvironment in regular as well as therapy resistant tumors

[11] = Metabolite identification; type: in vitro ADME
Plasma protein binding [12] = type: in vitro ADME; conditions: mouse
MM51 = experiment: Murine syngeneic MM51 model; type: in vivo; conditions: 1 and 5 mg/kg
Description: as §1

Microsomal stability [13] = type: in vitro ADME; conditions: Rat
Hepatocyte stability [14] = type: in vitro ADME; conditions: Human
[15] = Solubility: pION, kinetic, thermodynamic; type: physicochemical
Plasma stability [16] = type: in vitro ADME; conditions: Mouse
Hepatocyte stability [17] = type: in vitro ADME; conditions: Dog
hERG = molecular target: T1, hERG (Homo sapiens, UniProt Q12809); experiment: Off-target binding study (CEREP screen); conditions: no binding up to, read-out: IC 50 of binding, hERG
T1 construct: CEREP (contract screen, per earlier reading)
T1 sequence (Q12809 whole entry): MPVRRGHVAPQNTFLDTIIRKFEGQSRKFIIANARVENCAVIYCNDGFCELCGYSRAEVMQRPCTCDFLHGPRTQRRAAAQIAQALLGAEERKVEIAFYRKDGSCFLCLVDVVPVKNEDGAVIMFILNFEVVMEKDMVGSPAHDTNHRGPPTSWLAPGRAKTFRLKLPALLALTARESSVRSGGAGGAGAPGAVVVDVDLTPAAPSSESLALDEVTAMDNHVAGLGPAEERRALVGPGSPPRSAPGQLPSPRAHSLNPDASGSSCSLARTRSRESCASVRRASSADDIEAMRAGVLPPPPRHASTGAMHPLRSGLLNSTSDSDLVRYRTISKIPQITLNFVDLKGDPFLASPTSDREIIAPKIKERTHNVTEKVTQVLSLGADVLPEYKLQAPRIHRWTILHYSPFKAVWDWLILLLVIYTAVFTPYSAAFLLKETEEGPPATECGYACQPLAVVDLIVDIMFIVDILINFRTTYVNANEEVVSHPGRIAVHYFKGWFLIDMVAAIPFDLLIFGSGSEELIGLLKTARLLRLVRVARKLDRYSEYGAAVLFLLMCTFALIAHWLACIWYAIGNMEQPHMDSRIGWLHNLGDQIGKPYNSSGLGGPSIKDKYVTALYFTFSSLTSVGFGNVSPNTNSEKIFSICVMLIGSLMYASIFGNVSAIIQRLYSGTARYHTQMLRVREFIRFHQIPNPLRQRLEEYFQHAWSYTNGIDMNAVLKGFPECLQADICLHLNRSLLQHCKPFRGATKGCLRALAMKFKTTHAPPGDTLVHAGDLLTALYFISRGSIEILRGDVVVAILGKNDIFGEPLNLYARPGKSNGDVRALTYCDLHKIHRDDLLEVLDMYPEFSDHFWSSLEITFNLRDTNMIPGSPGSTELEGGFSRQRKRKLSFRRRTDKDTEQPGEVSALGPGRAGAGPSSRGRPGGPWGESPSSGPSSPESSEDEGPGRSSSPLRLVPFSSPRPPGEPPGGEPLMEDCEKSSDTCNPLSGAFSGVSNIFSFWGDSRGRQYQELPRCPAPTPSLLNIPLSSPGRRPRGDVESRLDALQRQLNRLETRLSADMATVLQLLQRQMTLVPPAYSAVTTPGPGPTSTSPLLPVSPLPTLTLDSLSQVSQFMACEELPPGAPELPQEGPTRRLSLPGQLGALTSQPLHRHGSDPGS

hERG membrane = hERG membrane (Homo sapiens, UniProt Q12809); experiment: Cardiotoxicity assessment (hERG), fluorescence polarization assay; type: binding
Chain of hERG membrane (Q12809 whole entry): as above

cancer cells = experiment: Colony formation in soft agar (EC359); type: cell-based
[18] = system: FC 1295 and imPSCc-2 organoids; experiment: Pancreatic cancer / stellate cell line derived organoid system; type: cell-based, Murine
Method: Most solid tumors have extensive stroma that not only facilitates the tumor progression but also impedes the delivery of the chemotherapeutic agents. Due to lack of any in-vitro system, presently it is difficult to evaluate any stroma-targeted therapies. Therefore, we developed an organoid system using labeled pancreatic cancer and stellate cell lines. Murine (FC 1295 and […]-2) cell lines cultured in different combinations were grown as an organoid system using matrigel. The organoids, starting day four were treated with either gemcitabine or EC359, a novel mifepristone derived steroidal cytotoxic agent that targets tumor stroma, or both in combination. qRT-PCR analysis of activated stroma signature genes was performed on the mRNA isolated from different treatment groups. H&E, immunohistochemistry, and western blot analysis were performed to further validate our findings. […] Our novel cell line derived organoid model can be utilized for fast, and inexpensive evaluation of stroma-targeted therapies.

[19] = system: High trans-fat fructose diet induced liver fibrosis; experiment: High fat diet (HFD) induced liver fibrosis in rats; type: in vivo, rat
Plasma protein binding [20] = type: in vitro ADME; conditions: rat
GR = molecular target: T2, GR (Homo sapiens, UniProt P04150); experiment: Off-target binding study (CEREP screen); conditions: no binding up to, read-out: IC 50 of binding, GR
T2 construct: CEREP (contract screen, per earlier reading)
T2 sequence (P04150 whole entry): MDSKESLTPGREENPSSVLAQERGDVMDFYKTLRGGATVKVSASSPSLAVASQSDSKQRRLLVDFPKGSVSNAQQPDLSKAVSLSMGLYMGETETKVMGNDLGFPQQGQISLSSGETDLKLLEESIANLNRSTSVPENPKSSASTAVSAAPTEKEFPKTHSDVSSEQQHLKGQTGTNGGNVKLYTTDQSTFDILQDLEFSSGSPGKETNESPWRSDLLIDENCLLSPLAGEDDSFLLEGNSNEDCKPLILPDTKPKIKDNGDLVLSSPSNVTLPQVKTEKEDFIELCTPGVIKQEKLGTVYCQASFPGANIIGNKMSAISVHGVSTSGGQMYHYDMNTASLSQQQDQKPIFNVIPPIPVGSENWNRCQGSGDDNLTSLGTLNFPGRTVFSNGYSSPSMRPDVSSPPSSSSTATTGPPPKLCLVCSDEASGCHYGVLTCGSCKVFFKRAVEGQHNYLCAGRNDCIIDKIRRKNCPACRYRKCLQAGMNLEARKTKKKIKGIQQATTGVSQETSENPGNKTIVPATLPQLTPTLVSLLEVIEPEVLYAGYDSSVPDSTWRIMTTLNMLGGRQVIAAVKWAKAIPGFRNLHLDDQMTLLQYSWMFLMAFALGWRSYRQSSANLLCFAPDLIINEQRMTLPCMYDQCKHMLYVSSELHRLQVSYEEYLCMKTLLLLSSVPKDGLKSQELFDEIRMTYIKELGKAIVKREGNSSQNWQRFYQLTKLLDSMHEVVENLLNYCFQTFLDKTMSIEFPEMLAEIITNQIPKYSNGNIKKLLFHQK

[21] = system: S. typhimurium TA98, TA100, TA1535 and E. coli WP2 uvrA + E. coli WP2[pKM101] strains; experiment: Mutagenicity testing
Plasma protein binding [22] = type: in vitro ADME; conditions: human
[23] = system: Cytochrome P450 (1A2, 2C9, 2C19, 2D6, 3A4); experiment: CYP inhibition using human liver microsomes; type: in vitro ADME; conditions: human liver microsomes (1A2, 2C9, 2C19, 2D6, 3A4)
Plasma stability [24] = type: in vitro ADME; conditions: Human
Single dose MTD = type: in vivo; conditions: 10, 25, 50 and 100 mg/kg
Microsomal stability [25] = type: in vitro ADME; conditions: Human
U-CH1 = experiment: 48 hours MTT cell proliferation assay, chordoma; type: cell-based; conditions: UCH1; U-CH1, 48 hours MTT
Method: (§2) EC359 was tested two chormoma cell lines (Mug-Chor and U-CH1) for cell viability in 48 hours MTT cell proliferation assay.

Mug-Chor cells = experiment: 48 hours MTT cell proliferation assay, chordoma; type: cell-based
Method: as §2

[26] = system: ID-8 ovarian syngeneic tumor; experiment: ID-8 ovarian syngeneic murine tumor model
Description: CD3+T cells: T cell co-receptor helps to activate both the cytotoxic T cell (CD8+ naive T cells) and also T helper cells (CD4+ naive T cells). • 2. Tumor infiltrating leukocytes • 3. CD19 is widely expressed during all phases of B cell development until terminal differentiation into plasma cells. • 4. […] M1 macrophages: produced along with inflammatory reaction. […] CD8-positive T cells: are a critical subpopulation of MEW class I-restricted T cell and are mediators of adaptive immunity.

Microsomal stability [27] = type: in vitro ADME; conditions: Dog
LIF = LIF (Homo sapiens, UniProt P15018); experiment: biochemical
Chain of LIF (P15018 23-202): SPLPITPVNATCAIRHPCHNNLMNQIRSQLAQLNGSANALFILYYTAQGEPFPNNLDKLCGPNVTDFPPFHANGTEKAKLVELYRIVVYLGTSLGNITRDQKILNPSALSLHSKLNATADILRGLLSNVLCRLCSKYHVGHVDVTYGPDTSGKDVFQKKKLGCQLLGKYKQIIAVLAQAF

For `C#CC(F)(F)[C@]1(O)CC[C@H]2[C@@H]3CCC4=CC(=O)CCC4=C3[C@@H](c3ccc(-c4c(C)cc(C)cc4C)cc3)C[C@@]21C` [EC359, 17α-(1,1-difluoro-2-propyn-1-yl)-17β-hydroxy-11β-[4-p-(2,4,6-trimethylphenyl)phenyl]estra-4,9-dien-3-one], the “combination with HDAC inhibitor” value [1] was “works synergistically”, the oral bioavailability (PK study in Mouse; Mouse) was “Orally bioavailable” and the “Mouse PK (p.o)” value (PK study in Mouse; p.o) was 1.0 h. For the same compound, the TNBC stem cells [2] was “inhibited”, the fraction unbound (Plasma protein binding [3]) was 0.0017 and the Hepatocyte stability (Hepatocyte stability [4]) was “Human & Mouse-moderate”. For the same compound, the Microsomal stability (Microsomal stability [5]) was “Human & Mouse-moderate”, the Hepatocyte stability (Hepatocyte stability [6]) was “Rat & Dog-low” and the “Plasma stability (% remaining at 60 min)” value (Plasma stability [7]) was 105.61%. For the same compound, the Caco2-permeability (Caco2) was “Low permeable”, the “efflux transporter substrate activity” value (Caco2) was “No efflux transporter” and the “Plasma stability (% remaining at 60 min)” value (Plasma stability [8]) was 108.64%. The “cytotoxicity (IC50's) in cytotoxicity assays” value [9] was “low nano-molar range”, the “Rat PK (iv)” value (PK study in Rat; iv) was 6 h and the oral bioavailability (PK study in Rat; rat) was “high oral bioavailability; also recorded: Orally bioavailable”. For the same compound, the half-life (PK study in Rat; rats) was “long half-life”, the “cytoskeletal disruption, targeting CAFs” value [10] was “inhibition of alpha-SMA but not beta-tubulin” and the tumor burden (TNBC xenograft) was “dose dependently reduced tumor burden”. For the same compound, the Major metabolic pathway [11] was “Major metabolic pathway-Phase I”, the glucuronide metabolites ([11]; low CL in UDPGA) was “metabolism; No glucuronide” and the fraction unbound (Plasma protein binding [12]) was 0.0037. The tumor burden (MM51) was “dose dependently reduced tumor burden”, the Microsomal stability (Microsomal stability [13]) was “Rat & Dog-low” and the Hepatocyte stability (Hepatocyte stability [14]) was “Human & Mouse-moderate”. For the same compound, the solubility [15] was under 10 µg/mL, the “Plasma stability (% remaining at 60 min)” value (Plasma stability [16]) was 104.91% and the Hepatocyte stability (Hepatocyte stability [17]) was “Rat & Dog-low”. For the same compound, the IC50 (hERG) was over 30000 nM, the “Cardiotoxicity assessment (hERG)” value (hERG membrane) was “No liability” and the “formation of colonies in soft agar” value (cancer cells) was “blocked formation of colonies”. The “expression of markers of activated stroma (western blot)” value [18] was “reduced the expression of markers of activated stroma including alpha-SMA, and vimentin”, the “relative reduction in GFP fluorescence” value ([18]; as compared to control) was 46% and the “liver damage (HFD induced steatohepatisis)” value ([19]; after 4 months of HFD, rats) was “significantly reduced”. The “fibrosis, Picrosirius red staining of liver tissue” value ([19]; intermediary and higher dose) was “Fibrosis was evident”, the “efficacy in rat models of liver fibrosis” value ([19]; rat models of liver fibrosis) was “showed efficacy” and the “fibrosis, Picrosirius red staining of liver tissue” value ([19]; rats) was “minimal fibrosis”. For the same compound, the fraction unbound (Plasma protein binding [20]) was 0.0011, the IC50 (GR) was over 10000 nM and the Mutagenicity testing [21] was “No mutagenicity”. For the same compound, the fraction unbound (Plasma protein binding [22]) was 0.0002, the CYP inhibition [23] was 2D6 inhibition and the “Plasma stability (% remaining at 60 min)” value (Plasma stability [24]) was 113.92%. For the same compound, the “Single dose MTD” value (Single dose MTD) was “No toxicity observed”, the Microsomal stability (Microsomal stability [25]) was “Human & Mouse-moderate” and the IC50 (U-CH1) was 140 nM. The IC50 (Mug-Chor cells) was 85 nM, the “tumor specific infiltration of lymphocytes and macrophages” value ([26]; ID-8 Ovarian cancer model) was “enhanced” and the M1 macrophages ([26]; ID-8 model) was “increased”. The “tumor specific accumulation of CD3+T, CD4+T and CD8+T cells” value ([26]; ID-8 model) was “increased”, the tumor burden ([26]; ID-8 ovarian syngeneic murine tumor model) was “significantly reduced” and the “combination with PD-L1 treatment” value ([26]; ovarian cancer ID-8 syngeneic mice model) was “synergizes PD-L1 treatment”. For the same compound, the Microsomal stability (Microsomal stability [27]) was “Rat & Dog-low” and the Kd (LIF) was over 5000 nM.
